Data taken from PubChem BioAssay (NCI).
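Dose response: 5 concentrations. Exposure: 48 h. Format: 96-well plates. Endpoint: linear interpolation; highest concentration if not reached. GI50 marks 50% less growth. TGI: concentration producing complete growth inhibition.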

Legend:
Test in all cases: inhibition of tumour cell growth, NCI panel, 48 h
A549 NSCLC = test system: A549 NSCLC
CCRF-CEM leukemia = test system: CCRF-CEM leukemia
EKVX NSCLC = test system: EKVX NSCLC
HCT-116 colon = test system: HCT-116 colon
LOX IMVI melanoma = test system: LOX IMVI melanoma
MALME-3M melanoma = test system: MALME-3M melanoma
OVCAR-8 ovarian = test system: OVCAR-8 ovarian
PC-3 prostate = test system: PC-3 prostate
SK-OV-3 ovarian = test system: SK-OV-3 ovarian
SW-620 colon = test system: SW-620 colon
TK-10 renal = test system: TK-10 renal
UO-31 renal = test system: UO-31 renal

Structure (SMILES)	TGI (A549 NSCLC)	TGI (CCRF-CEM leukemia)	TGI (EKVX NSCLC)	TGI (HCT-116 colon)	TGI (LOX IMVI melanoma)	TGI (MALME-3M melanoma)	TGI (OVCAR-8 ovarian)	TGI (PC-3 prostate)	TGI (SK-OV-3 ovarian)	TGI (SW-620 colon)	TGI (TK-10 renal)	TGI (UO-31 renal)	GI50 (A549 NSCLC)	GI50 (CCRF-CEM leukemia)	GI50 (MALME-3M melanoma)	GI50 (EKVX NSCLC)	GI50 (LOX IMVI melanoma)	GI50 (OVCAR-8 ovarian)	GI50 (SK-OV-3 ovarian)	GI50 (UO-31 renal)
COC1=C(OC)C(=O)C(Cc2c(Cl)nc3sc(C)cn23)=C(C)C1=O	41.8 µM	8.73 µM	35.6 µM	55.9 µM	34.1 µM	26.5 µM	41.2 µM	34.9 µM	32 µM	47.8 µM	31.7 µM	42.9 µM	–	–	–	–	–	–	–	–
Nc1ncnc2nc[nH]c12	> 250 µM	> 250 µM	> 250 µM	> 250 µM	> 250 µM	> 232 µM	> 250 µM	–	> 250 µM	> 250 µM	–	> 250 µM	75.6 µM	32.4 µM	86 µM	–	–	–	–	–
O=C(Nc1ccc(Cl)cc1)c1cc2cc(N=Nc3ccccc3Cl)ccc2oc1=O	> 100 µM	5.38 µM	57.5 µM	23.3 µM	–	48.3 µM	59 µM	–	84 µM	> 100 µM	89.4 µM	39.3 µM	–	–	–	–	–	–	–	–
O=C([O-])C[n+]1ccccc1	> 100 µM	> 100 µM	> 100 µM	> 100 µM	> 100 µM	> 100 µM	> 100 µM	> 100 µM	> 100 µM	> 100 µM	> 100 µM	> 100 µM	–	–	–	–	–	–	–	–
CCOc1ccc(NC(=O)C(=O)CC(=O)c2sc(NNC(C)=O)nc2C)cc1	> 100 µM	> 100 µM	> 100 µM	> 100 µM	> 100 µM	–	> 100 µM	–	> 100 µM	> 100 µM	> 100 µM	> 100 µM	–	–	–	–	–	–	–	–
CC(CCN)(CCN)[N+](=O)[O-]	> 100 µM	> 100 µM	> 100 µM	> 100 µM	> 100 µM	> 100 µM	> 100 µM	> 100 µM	> 100 µM	> 100 µM	> 100 µM	> 100 µM	–	–	–	–	–	–	–	–
C[C@]12C=CC(=O)C=C1CC[C@@H]1[C@@H]2CC[C@]2(C)OC(=O)CC[C@@H]12	478 µM	> 500 µM	> 500 µM	> 482 µM	> 500 µM	> 500 µM	498 µM	> 500 µM	> 500 µM	> 496 µM	> 500 µM	> 500 µM	–	–	–	–	–	–	–	–
CCOC(=O)c1cnc2oc3ccc(O)cc3c2c1C	> 100 µM	> 100 µM	> 100 µM	> 100 µM	> 100 µM	> 100 µM	> 100 µM	> 100 µM	> 100 µM	> 100 µM	> 100 µM	–	–	–	–	–	–	–	–	–
CCOC(=O)C1=C(C)OC2(O)C=CC(O)=C3C(=O)N(c4ccccc4)C(=O)C312 (stereo not given)	> 100 µM	–	> 100 µM	> 100 µM	52.9 µM	41.7 µM	> 100 µM	> 100 µM	> 100 µM	–	> 100 µM	65.4 µM	–	–	–	–	–	–	–	–
COCCOC(=O)c1c(C)n([O-])c2cc(Cl)c(Cl)cc2[n+]1=O	35.7 µM	64.7 µM	36.8 µM	–	40.8 µM	46.3 µM	25.7 µM	> 100 µM	47.5 µM	65.3 µM	98.3 µM	10.5 µM	–	–	–	–	–	–	–	–
O=C(O)c1cc([N+](=O)[O-])cc2c(=O)c3cnccc3[nH]c12	–	> 100 µM	–	> 100 µM	–	> 100 µM	> 100 µM	> 100 µM	> 100 µM	–	–	> 100 µM	–	–	–	–	–	–	–	–
CC(C)=CCC/C(C)=C/CC/C(C)=C/CC/C(C)=C/C=C/C=C(\C)CC/C=C(\C)CC/C=C(\C)CCC=C(C)C	> 100 µM	59.8 µM	> 93.3 µM	> 100 µM	49.9 µM	> 100 µM	> 88.2 µM	> 100 µM	> 100 µM	> 100 µM	> 74.3 µM	54.8 µM	–	–	–	–	–	–	–	–
NN(CC(=O)O)CC(=O)O	> 100 µM	> 100 µM	> 100 µM	> 100 µM	> 100 µM	> 100 µM	> 100 µM	> 100 µM	> 100 µM	> 100 µM	> 100 µM	> 100 µM	–	–	–	–	–	–	–	–
CCCCCCCCCCCCCCCCCCOc1ccccc1CC(=O)OCC[N+]1(C)CCCCC1	–	4.63 µM	17.5 µM	–	3.18 µM	4.86 µM	5.99 µM	–	38.2 µM	–	–	19.7 µM	–	1.96 µM	1.97 µM	2.65 µM	1.75 µM	2.4 µM	18.2 µM	4.14 µM
COc1cc2c(c(O)c1OC)-c1c(cc(OC)c(OC)c1OC)CC(C)C(C)C2 (stereo not given)	> 100 µM	62.1 µM	> 100 µM	> 100 µM	> 100 µM	> 100 µM	> 100 µM	> 100 µM	> 100 µM	> 100 µM	> 100 µM	> 100 µM	–	–	–	–	–	–	–	–
CN1CCOC(c2ccc(Cl)cc2)O1 (stereo not given)	> 100 µM	> 100 µM	> 100 µM	–	–	> 100 µM	> 100 µM	> 100 µM	> 100 µM	> 100 µM	> 100 µM	> 100 µM	–	–	–	–	–	–	–	–
